# From patent US4559323A, “A41030 Antibiotics” (Eli Lilly and Company, priority 1984, dated 1985)
# Where two headings read alike, the source gives them in different places.
# Assays:
# [1] = system: Pc. constellatus; experiment: Agar-dilution MIC (anaerobes); format: cell-based, Peptococcus constellatus; details: Table 15; Pc. constellatus 1468
# Procedure: (§1) The MIC values were determined by the agar-dilution method, and are recorded in Table 15, which follows.
# [2] = Electrometric titration (pKa); format: physicochemical; details: electrometric titration in 66% dimethylformamide in water
# [3] = system: Peptostreptococcus anaerobius; experiment: Agar-dilution MIC (anaerobes); format: cell-based
# [4] = system: Peptostreptococcus intermedius; experiment: Agar-dilution MIC (anaerobes); format: cell-based
# [5] = system: B. thetaiotaomicron; format: cell-based
# From the text: (§2) The agar-dilution procedure described by the International Collaborative study (ICS) group was used to determine the minimum inhibitory concentrations (MIC's).
# [6] = system: Bacteroides corrodens; experiment: Agar-dilution MIC (anaerobes); format: cell-based; details: Table 12; 24-hour; B. corrodens 1874
# From the text: (§3) The A41030 antibiotics, factors A, B, and C, are active against a genus of anaerobic bacteria identified as Bacteroides sp., the 24-hour MIC values being determined by the agar-dilution method, and are set forth in Table 12, which follows.
# [7] = system: Bacteroides vulgatis; experiment: Agar-dilution MIC (anaerobes); format: cell-based; details: Table 12; 24-hour; B. vulgatis 1563
# From the text: as §3
# [8] = system: Clostridium difficile; format: cell-based; details: Table 14; Clostridium difficile 2994
# [9] = system: Clostridium perfringens; format: cell-based; details: Table 14; Clostridium perfringens 81
# [10] = system: Peptococcus asaccharolyticus; experiment: Agar-dilution MIC (anaerobes); format: cell-based; details: Table 15
# Procedure: as §1
# [11] = system: Bacteroides corrodens; experiment: Agar-dilution MIC (anaerobes); format: cell-based; details: Table 14; Bacteroides corrodens 1874
# [12] = system: S. pyogenes; experiment: In vivo oral activity against S. pyogenes in mice
# [13] = system: Bacteroides vulgatis; experiment: Agar-dilution MIC (anaerobes); format: cell-based; details: Table 14; Bacteroides vulgatis 1211
# [14] = system: Clostridium difficile; format: cell-based; details: Table 16
# From the text: The A41030 antibiotic factors A, B, C, D, E, F, and G, are also active against a number of strains of Clostridium difficile, as determined by the agar-dilution method.
# [15] = system: Clostridium septicum; experiment: Agar-dilution MIC (anaerobes); format: cell-based; details: Table 14; Clostridium septicum 1128
# [16] = system: Peptococcus prevoti; experiment: Agar-dilution MIC (anaerobes); format: cell-based
# [17] = system: Bacteroides fragilis; experiment: Agar-dilution MIC (anaerobes); format: cell-based
# From the text: as §2
# [18] = system: Fusobacterium necrophorum; experiment: Agar-dilution MIC (anaerobes); format: cell-based; details: Table 14; Fusobacterium necrophorum 6054A
# [19] = system: Streptococcus pyogenes; experiment: Agar-dilution MIC; format: cell-based; details: 24 hours, Streptococcus pyogenes C203
# From the text: as §2
# [20] = system: Streptococcus sp. (Group D); experiment: Agar-dilution MIC; format: cell-based; details: 24 hours
# From the text: as §2
# [21] = system: Fusobacterium symbiosum; experiment: Agar-dilution MIC (anaerobes); format: cell-based; details: Table 14; Fusobacterium symbiosum 1470
# [22] = Solubility in solvents; format: physicochemical; details: solvents as named
# From the text: The seven antibiotic factors are recovered from the fermentation and are obtained as a mixture, the A41030 complex. It will be recognized that the ratio of the factors in the A41030 complex will vary, depending upon the fermentation conditions used. The individual factors […], and G are separated and isolated as individual compounds, as hereinafter described.
# [23] = system: Salmonella typhi; experiment: Agar-dilution MIC; format: cell-based; details: Table 17, 24 hours
smiles,measurement,setting,value
N[C@H]1C(=O)N[C@@H]2Cc3ccc(c(Cl)c3)Oc3cc4cc(c3O)Oc3ccc(cc3Cl)[C@@H](O)[C@@H]3NC(=O)C(NC(=O)[C@@H]4NC(=O)[C@@H](NC2=O)c2cc(O)cc(c2)Oc2cc1ccc2O)c1ccc(O)c(c1)-c1c(O)cc(O)cc1[C@@H](C(=O)O)NC3=O [A41030 factor B],MIC,[1],0.5 µg/mL
same,"pKa, first titratable group",[2],about 5.6
same,"pKa, second titratable group",[2],~7.5
same,MIC,"[3]; Table 14, Peptostreptococcus anaerobius 1428",≤ 0.25 µg/mL
same,MIC,"[3]; Table 15, Ps. anaerobius 8",0.25 µg/mL
same,MIC,"[3]; Table 15, Ps. anaerobius 52",0.5 µg/mL
same,MIC,"[3]; Table 15, Ps. anaerobius 59",0.25 µg/mL
same,MIC,"[3]; Table 15, Ps. anaerobius 1418",0.06 µg/mL
same,MIC,"[3]; Table 15, Ps. anaerobius 1428",0.25 µg/mL
same,MIC,"[3]; Table 15, Ps. anaerobius 1451",0.25 µg/mL
same,MIC,"[3]; Table 15, Ps. anaerobius 1477",0.125 µg/mL
same,MIC,"[4]; Table 14, Peptostreptococcus intermedius 1264",0.5 µg/mL
same,MIC,"[4]; Table 15, Ps. intermedius 1264",≤ 0.03 µg/mL
same,MIC,"[4]; Table 15, Ps. intermedius 1524",0.25 µg/mL
same,MIC,"[4]; Table 15, Ps. intermedius 1624",0.5 µg/mL
same,MIC,"[5]; Table 12, 24-hour, B. thetaiotaomicron 1438",32 µg/mL
same,MIC,"[5]; Table 12, 24-hour, B. thetaiotaomicron 1900A",128 µg/mL
same,MIC,"[5]; Table 14, Bacteroides thetalotaomicron 1438",32 µg/mL
same,MIC,[6],32 µg/mL
same,MIC,[7],32 µg/mL
same,MIC,[8],32 µg/mL
same,MIC,[9],0.5 µg/mL
same,MIC,[10]; Pc. asaccharolyticus 1302,0.125 µg/mL
same,MIC,[10]; Pc. asaccharolyticus 1344,0.5 µg/mL
same,MIC,[11],64 µg/mL
same,in vivo oral activity,[12],> 300 mg./kg.X2
same,MIC,[13],32 µg/mL
same,MIC,[14]; C. difficile 78,0.5 µg/mL
same,MIC,[14]; C. difficile 107B,0.5 µg/mL
same,MIC,[14]; C. difficile 111F,1.0 µg/mL
same,MIC,[14]; C. difficile 1153,1.0 µg/mL
same,MIC,[14]; C. difficile 2634,1.0 µg/mL
same,MIC,[14]; C. difficile 3424-5B,1.0 µg/mL
same,MIC,[14]; C. difficile 3816,1.0 µg/mL
same,MIC,[14]; C. difficile 3950,1.0 µg/mL
same,MIC,[14]; C. difficile 6890,1.0 µg/mL
same,MIC,[14]; C. difficile 8484,1.0 µg/mL
same,MIC,[14]; C. difficile A-194,1.0 µg/mL
same,MIC,[14]; C. difficile A-195,1.0 µg/mL
same,MIC,[14]; C. difficile A-196,1.0 µg/mL
same,MIC,[14]; C. difficile A-279,1.0 µg/mL
same,MIC,[14]; C. difficile A-280,0.5 µg/mL
same,MIC,[14]; C. difficile A-281,1.0 µg/mL
same,MIC,[14]; C. difficile WAL-2112,1.0 µg/mL
same,MIC,[14]; C. difficile WAL-3657,1.0 µg/mL
same,MIC,[14]; C. difficile WAL-4268,0.5 µg/mL
same,MIC,[15],4 µg/mL
same,MIC,"[16]; Table 14, Peptococcus prevoti 1281",≤ 0.25 µg/mL
same,MIC,"[16]; Table 15, Pc. prevoti 1281",0.5 µg/mL
same,MIC,"[16]; Table 15, Pc. prevoti 1293",0.25 µg/mL
same,MIC,"[16]; Table 15, Pc. prevoti 1407",0.5 µg/mL
same,MIC,"[17]; Table 12, 24-hour, B. fragilis 2",32 µg/mL
same,MIC,"[17]; Table 12, 24-hour, B. fragilis 9",32 µg/mL
same,MIC,"[17]; Table 12, 24-hour, B. fragilis 103",32 µg/mL
same,MIC,"[17]; Table 12, 24-hour, B. fragilis 104",32 µg/mL
same,MIC,"[17]; Table 12, 24-hour, B. fragilis 106",32 µg/mL
same,MIC,"[17]; Table 12, 24-hour, B. fragilis 107",32 µg/mL
same,MIC,"[17]; Table 12, 24-hour, B. fragilis 108",32 µg/mL
same,MIC,"[17]; Table 12, 24-hour, B. fragilis 110",64 µg/mL
same,MIC,"[17]; Table 12, 24-hour, B. fragilis 111",32 µg/mL
same,MIC,"[17]; Table 12, 24-hour, B. fragilis 112",32 µg/mL
same,MIC,"[17]; Table 12, 24-hour, B. fragilis 113",32 µg/mL
same,MIC,"[17]; Table 12, 24-hour, B. fragilis 1451",64 µg/mL
same,MIC,"[17]; Table 12, 24-hour, B. fragilis 1470",64 µg/mL
same,MIC,"[17]; Table 12, 24-hour, B. fragilis 1877",32 µg/mL
same,MIC,"[17]; Table 12, 24-hour, B. fragilis 9032",32 µg/mL
same,MIC,"[17]; Table 14, Bacteroides fragilis 111",64 µg/mL
same,MIC,"[17]; Table 14, Bacteroides fragilis 1877",32 µg/mL
same,MIC,"[17]; Table 14, Bacteroides fragilis 1936B",32 µg/mL
same,MIC,[18],8 µg/mL
same,MIC,[19]; Table 17,0.25 µg/mL
same,MIC,[19]; Table 18,0.125 µg/mL
same,MIC,"[20]; Table 17, Streptococcus sp. Group D 9960",1 µg/mL
same,MIC,"[20]; Table 17, Streptococcus sp. Group D X66",1 µg/mL
same,MIC,"[20]; Table 18, Streptococcus sp. Group D 2041",0.5 µg/mL
same,MIC,"[20]; Table 18, Streptococcus sp. Group D 2058",0.5 µg/mL
same,MIC,"[20]; Table 18, Streptococcus sp. Group D 8043",0.25 µg/mL
same,MIC,"[20]; Table 18, Streptococcus sp. Group D 9901",1 µg/mL
same,MIC,"[20]; Table 18, Streptococcus sp. Group D 9960",0.5 µg/mL
same,MIC,"[20]; Table 18, Streptococcus sp. Group D 12253F",0.5 µg/mL
same,MIC,"[20]; Table 18, Streptococcus sp. Group D Mx161",0.25 µg/mL
same,MIC,"[20]; Table 18, Streptococcus sp. Group D X66",0.25 µg/mL
same,MIC,[21],1.0 µg/mL
same,Solubility,[22],soluble in the same solvents as factor A
same,MIC,[23]; Salmonella typhi 1335,> 128 µg/mL
same,MIC,[23]; Salmonella typhi X514,> 128 µg/mL
